Assay results published in patent US20220081412A1, “QUINOLINYL-PYRAZINE-CARBOXAMIDE COMPOUNDS AND USES THEREOF” (The Regents of the University of Michigan, priority 2018, published 2022).

Tested on: MIA PaCa-2 cells
Test: Bru-seq analysis for nascent RNA synthesis (log2FC of genes, GSEA gene sets)
Type: cell-based, human
[1] = downregulated gene sets, C2, 4 h, MIA PaCa-2 cells

With `CCN(CC)CCCC(C)Nc1cnc(C(=O)Nc2cc(C)cc3cccnc23)cn1` (stereo not drawn) [J4, 5-((5-(diethylamino)pentan-2-yl)amino)-N-(6-methylquinolin-8-yl)pyrazine-2-carboxamide] the ES was 0.576, the NES was 1.841 and the “synthesis of INSIG1, DHCR7, MVK and MSMO1 RNAs” value was “upregulated”. The “expression of GPR135, SPDYA and ABCA1” value (4 h) was “significant decrease”, the “Cell Cycle, Mitotic pathway” value (4 h of treatment) was “upregulated” and the log2FC (AC004076.2, 4 h) was −0.85. It also gave a log2FC (AC005534.1, 4 h) of −0.75, a log2FC (AC005614.2, 4 h) of −0.94 and a log2FC (AC006141.1, 4 h) of −0.78. For the same compound, the log2FC (AC007038.2, 4 h) was −1.27, the log2FC (AC007619.1, 4 h) was −0.84 and the log2FC (AC007620.2, 4 h) was −0.89. The log2FC (AC008115.3, 4 h) was 0.78, the log2FC (AC008264.2, 4 h) was −0.80 and the log2FC (AC008906.1, 4 h) was −0.98. For the same compound, the log2FC (AC010615.1, 4 h) was −1.64, the log2FC (AC011379.1, 4 h) was 0.74 and the log2FC (AC018630.1, 4 h) was −0.77. The log2FC (AC026461.1, 4 h) was 0.86, the log2FC (AC068473.5, 4 h) was 0.77 and the log2FC (AC080080.1, 4 h) was 0.72. It also gave a log2FC (AC087280.2, 4 h) of −0.80, a log2FC (AC091152.2, 4 h) of −1.06 and a log2FC (AC091940.1, 4 h) of −0.79. It also gave a log2FC (AC098934.1, 4 h) of 0.72, a log2FC (AC108471.2, 4 h) of 0.85 and a log2FC (AC110769.2, 4 h) of 0.80. For the same compound, the log2FC (AC117382.1, 4 h) was −0.85, the log2FC (AC141586.1, 4 h) was 0.77 and the log2FC (AC239868.4, 4 h) was 1.12. The log2FC (AL050343.1, 4 h) was −0.82, the log2FC (AL133338.1, 4 h) was 1.02 and the log2FC (AL136984.1, 4 h) was −1.05. It also gave a log2FC (AL136987.1, 4 h) of −0.83, a log2FC (AL139260.1, 4 h) of 0.88 and a log2FC (AP001107.9, 4 h) of 0.81. For the same compound, the log2FC (AP001830.1, 4 h) was 0.75, the log2FC (AP002387.1, 4 h) was 0.72 and the log2FC (AP002748.3, 4 h) was 0.76. The log2FC (AVPI1, 4 h) was 1.37, the log2FC (BHLHE40, 4 h) was 1.32 and the log2FC (CASC21, 4 h) was −0.87. The log2FC (CCNG2, 4 h) was 1.62, the log2FC (DDIT3, 4 h) was 1.32 and the log2FC (DDIT4, 4 h) was 2.33. The log2FC (DEPDC1-AS1, 4 h) was 1.05, the log2FC (DHCR7, 4 h) was 2.13 and the log2FC (DNAJC3-AS1, 4 h) was 0.75. The log2FC (EXTL3-AS1, 4 h) was 0.73, the log2FC (FDFT1, 4 h) was 1.65 and the log2FC (FP671120.1, 4 h) was −1.32. The log2FC (HIST1H1E, 4 h) was 1.24, the log2FC (HIST1H3B, 4 h) was 1.26 and the log2FC (HMGCS1, 4 h) was 1.35. It also gave a log2FC (HSD17B7P2, 4 h) of 0.76, a log2FC (IDI1, 4 h) of 1.49 and a log2FC (INSIG1, 4 h) of 2.57. It also gave a log2FC (KRT18P31, 4 h) of 0.81, a log2FC (LINC01204, 4 h) of −0.84 and a log2FC (LINC01337, 4 h) of −1.19. It also gave a log2FC (LINC01547, 4 h) of 0.93, a log2FC (LINC01930, 4 h) of −1.00 and a log2FC (LIPG, 4 h) of 1.81. It also gave a log2FC (LSS, 4 h) of 1.25, a log2FC (MSMO1, 4 h) of 1.65 and a log2FC (MVD, 4 h) of 1.36. The log2FC (MVK, 4 h) was 1.68, the log2FC (NEU1, 4 h) was 2.68 and the log2FC (PCYT2, 4 h) was 1.70. For the same compound, the log2FC (RNVU1-6, 4 h) was −1.50, the log2FC (SCD, 4 h) was 1.95 and the log2FC (SDR39U1, 4 h) was 1.67. For the same compound, the log2FC (SH2D5, 4 h) was 1.29, the log2FC (SLC2A1-AS1, 4 h) was 1.02 and the log2FC (SLC2A6, 4 h) was 1.74. It also gave a log2FC (SYPL1P2, 4 h) of 0.84, a log2FC (TBC1D17, 4 h) of 1.62 and a log2FC (TPRKBP2, 4 h) of −1.15. The log2FC (TUBA1A, 4 h) was 1.24, the log2FC (ZNF295-AS1, 4 h) was 0.94 and the “ES BILD_CTNNBl_ONCOGENIC_SIGNATURE” value [1] was −0.449. The “ES DACOSTA_UV_RESPONSE_VIA_ERCC3_COMMON_DN” value [1] was −0.439, the “ES DACOSTA_UV_RESPONSE_VIA_ERCC3_TTD_DN” value [1] was −0.469 and the “ES DACOSTA_UV_RESPONSE_VIA_ERCC3_XPCS_DN” value [1] was −0.428. The “ES DAZARD_UV_RESPONSE_CLUSTER_G6” value [1] was −0.408, the “ES DOANE_BREAST_CANCER_CLASSES_DN” value [1] was −0.578 and the “ES GABRIELY_MIR21_TARGETS” value [1] was −0.328. The “ES GUENTHER_GROWTH_SPHERICAL_VS_ADHERENT_DN” value [1] was −0.531, the “ES HAMAI_APOPTOSIS_VIA_TRAIL_UP” value [1] was −0.368 and the “ES HAN_JNK_SINGALING_DN” value [1] was −0.579. The “ES HUTTMANN_B_CLL_POOR_SURVIVAL_DN” value [1] was −0.606, the “ES KEGG_NEUROACTIVE_LIGAND_RECEPTOR_INTERACTION” value [1] was −0.624 and the “ES LEE_TARGETS_OF_PTCH1_AND_SUFU_UP” value [1] was −0.515. The “ES MARTINEZ_RESPONSE_TO_TRABECTEDIN” value [1] was −0.482, the “ES MILI_PSEUDOPODIA_HAPTOTAXIS_UP” value [1] was −0.322 and the “ES RAMALHO_STEMNESS_UP” value [1] was −0.331. The “ES REACTOME_ASSOCIATION_OF_TRIC_CCT_WITH_TARGET_PROTEINS_DURING_BIOSYNTHESIS” value [1] was −0.551, the “ES SENGUPTA_NASOPHARYNGEAL_CARCINOMA_UP” value [1] was −0.360 and the “ES SENGUPTA_NASOPHARYNGEAL_CARCINOMA_WITH_LMP1_UP” value [1] was −0.365. For the same compound, the “ES TCGA_GLIOBLASTOMA_COPY_NUMBER_DN” value [1] was −0.533, the “ES THUM_SYSTOLIC_HEART_FAILURE_DN” value [1] was −0.352 and the “ES TURASHVILI_BREAST_LOBULAR_CARCINOMA_VS_DUCTAL_NORMAL_DN” value [1] was −0.476. For the same compound, the “ES ZHANG_TLX_TARGETS_36HR_DN” value [1] was −0.470, the “ES ZHANG_TLX_TARGETS_DN” value [1] was −0.446 and the “ES ZHENG_FOXP3_TARGETS_IN_T_LYMPHOCYTE_DN” value [1] was −0.611. For the same compound, the “NES BILD_CTNNBl_ONCOGENIC_SIGNATURE” value [1] was −1.841, the “NES DACOSTA_UV_RESPONSE_VIA_ERCC3_COMMON_DN” value [1] was −2.348 and the “NES DACOSTA_UV_RESPONSE_VIA_ERCC3_TTD_DN” value [1] was −1.878. The “NES DACOSTA_UV_RESPONSE_VIA_ERCC3_XPCS_DN” value [1] was −1.784, the “NES DAZARD_UV_RESPONSE_CLUSTER_G6” value [1] was −1.855 and the “NES DOANE_BREAST_CANCER_CLASSES_DN” value [1] was −1.830. The “NES GABRIELY_MIR21_TARGETS” value [1] was −1.642, the “NES GUENTHER_GROWTH_SPHERICAL_VS_ADHERENT_DN” value [1] was −1.656 and the “NES HAMAI_APOPTOSIS_VIA_TRAIL_UP” value [1] was −1.942. For the same compound, the “NES HAN_JNK_SINGALING_DN” value [1] was −1.665, the “NES HUTTMANN_B_CLL_POOR_SURVIVAL_DN” value [1] was −2.076 and the “NES KEGG_NEUROACTIVE_LIGAND_RECEPTOR_INTERACTION” value [1] was −1.898. For the same compound, the “NES LEE_TARGETS_OF_PTCH1_AND_SUFU_UP” value [1] was −1.661, the “NES MARTINEZ_RESPONSE_TO_TRABECTEDIN” value [1] was −1.727 and the “NES MILI_PSEUDOPODIA_HAPTOTAXIS_UP” value [1] was −1.718. For the same compound, the “NES RAMALHO_STEMNESS_UP” value [1] was −1.615, the “NES REACTOME_ASSOCIATION_OF_TRIC_CCT_WITH_TARGET_PROTEINS_DURING_BIOSYNTHESIS” value [1] was −1.804 and the “NES SENGUPTA_NASOPHARYNGEAL_CARCINOMA_UP” value [1] was −1.794. For the same compound, the “NES SENGUPTA_NASOPHARYNGEAL_CARCINOMA_WITH_LMP1_UP” value [1] was −1.837, the “NES TCGA_GLIOBLASTOMA_COPY_NUMBER_DN” value [1] was −1.738 and the “NES THUM_SYSTOLIC_HEART_FAILURE_DN” value [1] was −1.673.
